Measured values reported in PMC8953592, “Mechanism of Action and Therapeutic Potential of the β-Hairpin Antimicrobial Peptide Capitellacin from the Marine Polychaeta Capitella teleta” (Marine Drugs, 2022).
Positions of bridges follow the written chain, without caps; N, C: chain ends. Residues, ends and D or L forms follow the SMILES beside them.

Assays:
[1] = system: human red blood cells; experiment: Hemolytic assay (hemoglobin release); details: human erythrocytes
Method: To examine the ability of the peptides to permeabilize cytoplasmic membranes of bacterial and mammalian cells, the ONPG test and hemolysis assay were used, respectively. […] The hemolytic activity of AMPs against a suspension of human erythrocytes was determined by the method of double serial dilution in buffered saline followed by incubation for 1.5 h (Figure 2A). […] Next, we used ONPG assay to estimate E. coli inner membrane permeabilization by the peptides.
The hemolytic activity of compounds was performed using human red blood cells (hRBS), in accordance with the previously described approach. Briefly, hRBS of a healthy donor were separated from fresh blood and washed 3 times with ice-cold phosphate-buffered saline (PBS pH 7.4) and centrifuged at 500× g for 10 min; additionally, citrate buffer was added to prevent clotting. Further, supernatant was discarded and erythrocyte suspension was prepared in PBS as 8% (v/v) solution. The test was carried out in the 96-well plate, taking into account two-fold serial dilutions of studied peptides. […] Then the plate was centrifuged at 1000× g for 15 min for the precipitation of erythrocyte. The amount of hemoglobin release was determined by absorption spectroscopy at 405 nm. Triton X-100 (0.1% v/v) was used as a positive control, which underwent a complete lysis of erythrocytes, and PBS working solution was used as a negative control. The percentage hemolysis was calculated by the following formula: Hemolysis (%)=OD405(compound)− OD405 (zero lysis)/OD405(100 % lysis)− OD405 (zero lysis)×100%
The assays were conducted three times. The quantitative data were presented as an average means with standard deviations.

[2] = system: Gram-positive bacteria; details: Gram-positive test strains
[3] = system: Gram-negative bacteria; details: Gram-negative test strains
[4] = system: E. coli ML-35p; design: method as in 2 sources, one per row (each row's own in cited_ref): ref 4, 19, 27 = [4]; PMID 33291782; doi:10.3390/md18120620; 4. Panteleev P.V. Tsarev A.V. Safronova V.N. Reznikova O.V. Bolosov I.A. Sychev S.V. Shenkarev Z.O. Ovchinnikova T.V. Structure Elucidation and Functional Studies of a Novel β-Hairpin Antimicrobial Pe || [19]; PMID 26814379; doi:10.1002/psc.2843; 19. Panteleev P.V. Bolosov I.A. Ovchinnikova T.V. Bioengineering and Functional Characterization of Arenicin Shortened Analogs with Enhanced Antibacterial Activity and Cell Selectivity J. Pept. Sci. 2 || [27]; PMID 25558400; doi:10.32607/20758251-2014-6-4-99-109; 27. Shamova O.V. Orlov D.S. Balandin S.V. Shramova E.I. Tsvetkova E.V. Panteleev P.V. Leonova Y.F. Tagaev A.A. Kokryakov V.N. Ovchinnikova T.V. Acipensins—Novel Antimicrobial Peptides from Leukocytes ||| ref 4 = [4]; PMID 33291782; doi:10.3390/md18120620; 4. Panteleev P.V. Tsarev A.V. Safronova V.N. Reznikova O.V. Bolosov I.A. Sychev S.V. Shenkarev Z.O. Ovchinnikova T.V. Structure Elucidation and Functional Studies of a Novel β-Hairpin Antimicrobial Pe; details: at a concentration several-fold higher than MIC; cited from earlier work
[5] = system: E. coli MDR CI 1057; format: cell-based
[6] = system: Bacillus subtilis B-886; details: B-886, 24 h
[7] = system: E. coli CI 214; details: CI 214, 24 h
[8] = system: Micrococcus luteus B-1314; details: B-1314, 24 h
[9] = system: E. coli ATTC 25922; details: ATTC 25922, 24 h
[10] = system: E. cloacae CI 4172; details: CI 4172, 24 h
[11] = system: E. coli ML-35p; details: 24 h
[12] = system: K. pneumonia ATCC 700603; details: ATCC 700603, 24 h
[13] = system: E. coli CI 3600; details: CI 3600, 24 h
[14] = system: P. aeruginosa PAO1; details: PAO1, 24 h
[15] = system: A. baumanii CI 2675; details: 24 h
[16] = system: Staphylococcus aureus 209P; details: 24 h

CC[C@H](C)[C@@H]1NC(=O)[C@@H](NC(=O)[C@@H](NC(=O)[C@H](CCCNC(=N)N)NC(=O)[C@@H]2CCCN2C(=O)[C@@H](N)CO)C(C)C)CSSC[C@@H](C(=O)N[C@@H](Cc2c[nH]c3ccccc23)C(=O)NCC(=O)O)NC(=O)[C@H](CCCNC(=N)N)NC(=O)[C@H](CCCNC(=N)N)NC(=O)[C@H](Cc2ccc(O)cc2)NC(=O)[C@@H]2CSSC[C@H](NC(=O)[C@H](C(C)C)NC(=O)[C@H](CCCNC(=N)N)NC1=O)C(=O)N[C@@H](CCCNC(=N)N)C(=O)N[C@@H](CC(N)=O)C(=O)NCC(=O)N[C@@H](C(C)C)C(=O)N2 [Cap, capitellacin]
hemolytic effect after 24 h exposure ([1]; 128 µM, 24 h): 50%
concentration above which toxic effect was observed after 24 h ([1]; 24 h, 32 µM = 64× MIC): above 32 µM
Geometric mean (GM) of the peptide MICs [2]: 8 µM
Geometric mean (GM) of the peptide MICs [3]: 1 µM

CC[C@H](C)[C@@H]1NC(=O)[C@@H](NC(=O)[C@@H](NC(=O)[C@H](CCCNC(=N)N)NC(=O)[C@@H]2CCCN2C(=O)[C@@H](N)CO)C(C)C)CSSC[C@@H](C(=O)N[C@@H](Cc2c[nH]c3ccccc23)C(=O)O)NC(=O)[C@H](CCCNC(=N)N)NC(=O)[C@H](CCCNC(=N)N)NC(=O)[C@H](Cc2ccc(O)cc2)NC(=O)[C@@H]2CSSC[C@H](NC(=O)[C@H](C(C)C)NC(=O)[C@H](CCCNC(=N)N)NC1=O)C(=O)N[C@@H](CCCNC(=N)N)C(=O)N[C@@H](CC(N)=O)C(=O)NCC(=O)N[C@@H](C(C)C)C(=O)N2 [CT3]
Geometric mean (GM) of the peptide MICs [2]: 10.08 µM
Geometric mean (GM) of the peptide MICs [3]: 1.09 µM

arenicin-1
membrane permeabilization after 60 min [4]: almost full membrane permeabilization

polymyxin B
Initial MIC value ([5]; E. coli MDR CI 1057, Mueller–Hinton medium containing added NaCl, before passages): 0.125 µM
increase in MIC value after 9 passages ([5]; E. coli MDR CI 1057, after just 9 passages): 64 fold

CC[C@H](C)[C@@H]1NC(=O)[C@@H](NC(=O)[C@@H](NC(=O)[C@H](CCCNC(=N)N)NC(=O)[C@@H]2CCCN2C(=O)[C@H](CO)NC(=O)[C@@H](N)CCCNC(=N)N)C(C)C)CSSC[C@@H](C(=O)N[C@@H](Cc2c[nH]c3ccccc23)C(=O)NCC(=O)O)NC(=O)[C@H](CCCNC(=N)N)NC(=O)[C@H](CCCNC(=N)N)NC(=O)[C@H](Cc2ccc(O)cc2)NC(=O)[C@@H]2CSSC[C@H](NC(=O)[C@H](C(C)C)NC(=O)[C@H](CCCNC(=N)N)NC1=O)C(=O)N[C@@H](CCCNC(=N)N)C(=O)N[C@@H](CC(N)=O)C(=O)NCC(=O)N[C@@H](C(C)C)C(=O)N2 [CT2]
Geometric mean (GM) of the peptide MICs [2]: 3.17 µM
Geometric mean (GM) of the peptide MICs [3]: 0.46 µM

CC(C)[C@@H]1NC(=O)CNC(=O)[C@H](CC(N)=O)NC(=O)[C@H](CCCNC(=N)N)NC(=O)[C@@H]2CSSC[C@H](NC1=O)C(=O)N[C@@H](Cc1ccc(O)cc1)C(=O)N[C@@H](CCCNC(=N)N)C(=O)N[C@@H](CCCNC(=N)N)C(=O)N[C@H](C(=O)N[C@@H](Cc1c[nH]c3ccccc13)C(=O)O)CSSC[C@H](NC(=O)[C@@H](NC(=O)[C@@H](N)CCCNC(=N)N)C(C)C)C(=O)N[C@@H](Cc1ccccc1)C(=O)N[C@@H](CCCNC(=N)N)C(=O)N[C@@H](C(C)C)C(=O)N2 [CT6]
Geometric mean (GM) of the peptide MICs [2]: 6.35 µM
Geometric mean (GM) of the peptide MICs [3]: 0.55 µM

protegrin-1
membrane permeabilization after 60 min [4]: almost full membrane permeabilization

CC[C@H](C)[C@@H]1NC(=O)[C@@H](NC(=O)[C@@H](NC(=O)[C@@H](N)CCCNC(=N)N)C(C)C)CSSC[C@@H](C(=O)N[C@@H](Cc2c[nH]c3ccccc23)C(=O)O)NC(=O)[C@H](CCCNC(=N)N)NC(=O)[C@H](CCCNC(=N)N)NC(=O)[C@H](Cc2ccc(O)cc2)NC(=O)[C@@H]2CSSC[C@H](NC(=O)[C@H](C(C)C)NC(=O)[C@H](CCCNC(=N)N)NC1=O)C(=O)N[C@@H](CCCNC(=N)N)C(=O)N[C@@H](CC(N)=O)C(=O)NCC(=O)N[C@@H](C(C)C)C(=O)N2 [CT4]
Geometric mean (GM) of the peptide MICs [2]: 6.35 µM
Geometric mean (GM) of the peptide MICs [3]: 0.59 µM

CC[C@H](C)[C@@H]1NC(=O)[C@@H](NC(=O)[C@@H](NC(=O)[C@@H](N)CCCNC(=N)N)C(C)C)CSSC[C@@H](C(=O)N[C@@H](Cc2c[nH]c3ccccc23)C(=O)O)NC(=O)[C@H](CCCNC(=N)N)NC(=O)[C@H](CCCNC(=N)N)NC(=O)[C@H](Cc2ccc(O)cc2)NC(=O)[C@@H]2CSSC[C@H](NC(=O)[C@H](C(C)C)NC(=O)[C@H](CCCNC(=N)N)NC1=O)C(=O)N[C@@H](Cc1ccc(O)cc1)C(=O)N[C@@H](CCCNC(=N)N)C(=O)NCC(=O)N[C@@H](C(C)C)C(=O)N2 [CT7] (H-RVCIRVCYRGVCYRRCW-OH; disulfide 3-16, 7-12)
Minimum Inhibitory Concentration [6]: 4 µM
Minimum Inhibitory Concentration [7]: 0.25 µM
maximum level of lysis (hemolysis) ([1]; 128 μM peptide, 1.5 h incubation, PBS, 37 °C, absorbance 405 nm, Triton X-100 = 100%): ~50%
Minimum Inhibitory Concentration [8]: 1 µM
Minimum Inhibitory Concentration [9]: 0.25 µM
Geometric mean (GM) of the peptide MICs [2]: 2 µM
Geometric mean (GM) of the peptide MICs [3]: 0.55 µM
Minimum Inhibitory Concentration [10]: 2 µM
Minimum Inhibitory Concentration [11]: 0.5 µM
Minimum Inhibitory Concentration [12]: 4 µM
Minimum Inhibitory Concentration [13]: 0.25 µM
Minimum Inhibitory Concentration [14]: 1 µM
Minimum Inhibitory Concentration [15]: 0.125 µM
Minimum Inhibitory Concentration [16]: 2 µM

CC[C@H](C)[C@@H]1NC(=O)[C@@H](NC(=O)[C@H](Cc2c[nH]c3ccccc23)NC(=O)[C@@H](N)CCCCN)CSSC[C@@H](C(=O)N[C@@H](CCCNC(=N)N)C(=O)O)NC(=O)[C@H](CCCNC(=N)N)NC(=O)[C@H](CCCNC(=N)N)NC(=O)[C@H](Cc2ccc(O)cc2)NC(=O)[C@@H]2CSSC[C@H](NC(=O)[C@H](C(C)C)NC(=O)[C@H](CCCNC(=N)N)NC1=O)C(=O)N[C@@H](CCCNC(=N)N)C(=O)N[C@@H](CC(N)=O)C(=O)NCC(=O)N[C@@H](C(C)C)C(=O)N2 [CT5]
Minimum Inhibitory Concentration [6]: 32 µM
Minimum Inhibitory Concentration [7]: 0.5 µM
Minimum Inhibitory Concentration [8]: 8 µM
Minimum Inhibitory Concentration [9]: 0.5 µM
Geometric mean (GM) of the peptide MICs [2]: 12.7 µM
Geometric mean (GM) of the peptide MICs [3]: 1.09 µM
Minimum Inhibitory Concentration [10]: 4 µM
Minimum Inhibitory Concentration [11]: 0.5 µM
Minimum Inhibitory Concentration [12]: 4 µM
Minimum Inhibitory Concentration [13]: 0.5 µM
Minimum Inhibitory Concentration [14]: 4 µM
Minimum Inhibitory Concentration [15]: 0.5 µM
Minimum Inhibitory Concentration [16]: 8 µM
